{
  "source": "ChEMBL document CHEMBL1131056",
  "about": "“Rational design of antitumor prostaglandins with high biological stability” (J Med Chem, 1998)",
  "data": [
    {"test_system": "Colon 26", "test": "Antiproliferative Activity against colon 26 cancer cells", "format": "functional, cell-based", "details": "Mus musculus", "units": {"IC50": "µg/mL"}, "values": [
      {"compound": "CCCCC[C@H](O)/C=C/[C@H]1C=CC(=O)/C1=C/CCCCCC(=O)O", "IC50": 0.57},
      {"compound": "CCCCCC/C=C/[C@@H]1C=CC(=O)/C1=C/CCCCCC(=O)O", "IC50": 0.23},
      {"compound": "CCCCC[C@@H](O)/C=C/[C@@H]1C=CC(=O)/C1=C/CCCCCC(=O)O", "IC50": 0.5},
      {"compound": "CCCCC[C@H](O)/C=C/[C@@H]1C=CC(=O)/C1=C/CCCCCC(=O)O", "IC50": 0.35}
    ]},
    {"test_system": "A 172", "test": "Growth inhibition time for A172 Human Glioma cell growth at concentration 5 uM", "format": "functional", "details": "not given", "units": {"Inhibition period": "h"}, "values": [
      {"compound": "CCCCC[C@@H](O)/C=C/[C@@H]1C=CC(=O)/C1=C/CCCCCC(=O)OC", "Inhibition period": ">72"},
      {"compound": "CCCCC[C@H](O)/C=C/[C@H]1C=CC(=O)/C1=C/CCCCCC(=O)OC", "Inhibition period": "<48"},
      {"compound": "CCCCC[C@H](O)/C=C/[C@@H]1C=CC(=O)/C1=C/CCCCCC(=O)OC", "Inhibition period": ">72"}
    ]}
  ]
}
